Active and inactive are the calls of the source. The calls are words filed in the database; no cut-off is given here.
Assays:
Saccharomyces cerevisiae = test: Antifungal activity against Saccharomyces cerevisiae RSKK 251 after 18 hr by agar well diffusion method; format: functional, organism-based
Candida tropicalis = test: Antifungal activity against Candida tropicalis after 18 hr by agar well diffusion method; format: functional, organism-based
Pseudomonas aeruginosa [1] = test: Antibacterial activity against Pseudomonas aeruginosa ATCC 43288 after 18 hr by agar well diffusion method; format: functional
Enterococcus faecalis [2] = test: Antibacterial activity against Enterococcus faecalis ATCC 29212 after 18 hr by agar well diffusion method; format: functional
Bacillus cereus [3] = test: Antibacterial activity against Bacillus cereus 702 Roma after 18 hr by agar well diffusion method; format: functional
Candida albicans = test: Antifungal activity against Candida albicans ATCC 60193 after 18 hr by agar well diffusion method; format: functional, organism-based
Staphylococcus aureus [4] = test: Antibacterial activity against Staphylococcus aureus ATCC 25923 after 18 hr by agar well diffusion method; format: functional
[5] = test system: Mycolicibacterium smegmatis; test: Antibacterial activity against Mycobacterium smegmatis ATCC 607 after 18 hr by agar well diffusion method; format: functional
Pseudomonas aeruginosa [6] = test: Antibacterial activity against Pseudomonas aeruginosa ATCC 43288 at 10 mg after 18 hr by agar well diffusion method; format: functional; conditions: ATCC 43288, 18 h, read-out: IZ
Enterococcus faecalis [7] = test: Antibacterial activity against Enterococcus faecalis ATCC 29212 at 10 mg after 18 hr by agar well diffusion method; format: functional; conditions: ATCC 29212, 18 h, read-out: IZ
Bacillus cereus [8] = test: Antibacterial activity against Bacillus cereus 702 Roma at 10 mg after 18 hr by agar well diffusion method; format: functional; conditions: read-out: IZ
Staphylococcus aureus [9] = test: Antibacterial activity against Staphylococcus aureus ATCC 25923 at 10 mg after 18 hr by agar well diffusion method; format: functional; conditions: ATCC 25923, 18 h, read-out: IZ

| SMILES | Activity (Saccharomyces cerevisiae) | Activity (Candida tropicalis) | Activity (Pseudomonas aeruginosa [1]) | Activity (Enterococcus faecalis [2]) | Activity (Bacillus cereus [3]) | Activity (Candida albicans) | Activity (Staphylococcus aureus [4]) | Activity [5] | inhibition zone (IZ) (Enterococcus faecalis [2]) [mm] | inhibition zone (IZ) (Bacillus cereus [3]) [mm] | inhibition zone (IZ) (Staphylococcus aureus [4]) [mm] | inhibition zone (IZ) (Pseudomonas aeruginosa [1]) [mm] | inhibition zone (IZ) [5] [mm] | zone of inhibition at 10000 µg/disc (Pseudomonas aeruginosa [6]) [mm] | zone of inhibition at 10000 µg/disc (Enterococcus faecalis [7]) [mm] | zone of inhibition at 10000 µg/disc (Bacillus cereus [8]) [mm] | zone of inhibition at 10000 µg/disc (Staphylococcus aureus [9]) [mm] |
| --- | --- | --- | --- | --- | --- | --- | --- | --- | --- | --- | --- | --- | --- | --- | --- | --- | --- |
| Cc1ccc(Cc2nn(CC(=O)NNC(=S)Nc3ccccc3)c(=O)n2CCc2c[nH]c3ccccc23)cc1 | inactive | inactive | inactive | inactive | inactive | inactive | inactive | inactive |  |  |  |  |  |  |  |  |  |
| O=c1n(Cc2nnc(S)o2)nc(Cc2ccc(Cl)cc2)n1CCc1c[nH]c2ccccc12 | inactive | inactive | inactive |  |  | inactive |  | inactive | 10 | 6 | 8 |  |  |  |  |  |  |
| Cc1ccc(Cc2nn(Cc3n[nH]c(=O)n3Cc3ccccc3)c(=O)n2CCc2c[nH]c3ccccc23)cc1 | inactive | inactive |  | inactive |  | inactive | inactive |  |  | 7 |  | 6 | 10 |  |  |  |  |
| Nn1c(S)nnc1Cn1nc(Cc2ccc(Cl)cc2)n(CCc2c[nH]c3ccccc23)c1=O | inactive | inactive | inactive | inactive |  | inactive | inactive |  |  | 7 |  |  | 7 |  |  |  |  |
| O=C(Cn1nc(Cc2ccc(Cl)cc2)n(CCc2c[nH]c3ccccc23)c1=O)N/N=C/Cc1ccccc1 | inactive | inactive | inactive | inactive | inactive | inactive | inactive | inactive |  |  |  |  |  |  |  |  |  |
| O=C(Cn1nc(Cc2ccc(Cl)cc2)n(CCc2c[nH]c3ccccc23)c1=O)NNS(=O)(=O)c1ccc(Cl)cc1 | inactive | inactive |  |  |  | inactive |  |  |  | 12 | 11 | 12 | 14 |  |  |  |  |
| O=C(Cn1nc(Cc2ccc(Cl)cc2)n(CCc2c[nH]c3ccccc23)c1=O)N/N=c1\occ(-c2ccc(Cl)cc2)n1Cc1ccccc1 | inactive | inactive | inactive | inactive |  | inactive |  | inactive |  | 6 | 5 |  |  |  |  |  |  |
| O=c1[nH]nc(Cn2nc(Cc3ccc(Cl)cc3)n(CCc3c[nH]c4ccccc34)c2=O)n1Cc1ccccc1 | inactive | inactive |  | inactive |  | inactive | inactive |  |  | 12 |  | 10 | 10 |  |  |  |  |
| Cc1ccc(Cc2nn(Cc3nnc(S)o3)c(=O)n2CCc2c[nH]c3ccccc23)cc1 | inactive | inactive | inactive |  |  | inactive |  |  | 12 | 8 | 12 |  | 8 |  |  |  |  |
| O=C(Cn1nc(Cc2ccc(Cl)cc2)n(CCc2c[nH]c3ccccc23)c1=O)NNS(=O)(=O)c1ccc(Br)cc1 | inactive | inactive |  | inactive |  | inactive |  |  |  | 12 | 8 | 12 | 9 |  |  |  |  |
| Cc1ccc(Cc2nn(CC(=O)NNS(=O)(=O)c3ccc(Br)cc3)c(=O)n2CCc2c[nH]c3ccccc23)cc1 | inactive | inactive |  | inactive |  | inactive | inactive |  |  | 8 |  | 10 | 7 |  |  |  |  |
| COc1ccc(/C=N/n2c(S)nnc2Cn2nc(Cc3ccc(C)cc3)n(CCc3c[nH]c4ccccc34)c2=O)cc1 | inactive | inactive |  | inactive |  | inactive |  |  |  | 12 | 11 | 12 | 6 |  |  |  |  |
| O=C(Cn1nc(Cc2ccc(Cl)cc2)n(CCc2c[nH]c3ccccc23)c1=O)NNC(=O)NCc1ccccc1 | inactive | inactive | inactive | inactive | inactive | inactive | inactive | inactive |  |  |  |  |  |  |  |  |  |
| Cc1ccc(Cc2nn(CC(=O)NNS(=O)(=O)c3ccc(Cl)cc3)c(=O)n2CCc2c[nH]c3ccccc23)cc1 | inactive | inactive |  | inactive |  | inactive |  |  |  | 10 | 7 | 10 | 9 |  |  |  |  |
| COc1ccc(/C=N/NC(=O)Cn2nc(Cc3ccc(C)cc3)n(CCc3c[nH]c4ccccc34)c2=O)cc1 | inactive | inactive | inactive | inactive | inactive | inactive | inactive | inactive |  |  |  |  |  |  |  |  |  |
| CC1(C)S[C@@H]2[C@H](NC(=O)[C@H](N)c3ccccc3)C(=O)N2[C@H]1C(=O)O [AMPICILLIN] |  |  |  |  |  |  |  |  |  |  |  |  |  | 18 | 10 | 15 | 35 |
| Cc1ccc(Cc2nn(CC(=O)N/N=C/c3ccc[nH]3)c(=O)n2CCc2c[nH]c3ccccc23)cc1 | inactive | inactive | inactive | inactive | inactive | inactive | inactive | inactive |  |  |  |  |  |  |  |  |  |
| Cc1ccc(Cc2nn(CC(=O)N/N=c3\scc(-c4ccc(Cl)cc4)n3-c3ccccc3)c(=O)n2CCc2c[nH]c3ccccc23)cc1 | inactive | inactive | inactive | inactive | inactive | inactive | inactive | inactive |  |  |  |  |  |  |  |  |  |
| CN[C@@H]1[C@H](O[C@H]2[C@H](O[C@H]3[C@H](O)[C@@H](O)[C@H](N=C(N)N)[C@@H](O)[C@@H]3N=C(N)N)O[C@@H](C)[C@]2(O)C=O)O[C@@H](CO)[C@H](O)[C@H]1O [STREPTOMYCIN] |  |  |  |  |  |  |  |  |  |  |  |  | 35 |  |  |  |  |
| Cc1ccc(Cc2nn(Cc3nnc(S)n3N)c(=O)n2CCc2c[nH]c3ccccc23)cc1 | inactive | inactive | inactive | inactive |  | inactive | inactive |  |  | 7 |  |  | 6 |  |  |  |  |
| O=C(Cn1nc(Cc2ccc(Cl)cc2)n(CCc2c[nH]c3ccccc23)c1=O)N/N=C/c1ccc[nH]1 | inactive | inactive | inactive | inactive | inactive | inactive | inactive |  |  |  |  |  | 6 |  |  |  |  |
| Cc1ccc(Cc2nn(CC(=O)N/N=C/c3ccccn3)c(=O)n2CCc2c[nH]c3ccccc23)cc1 | inactive | inactive | inactive | inactive | inactive | inactive | inactive | inactive |  |  |  |  |  |  |  |  |  |
| COc1ccc(/C=N/NC(=O)Cn2nc(Cc3ccc(Cl)cc3)n(CCc3c[nH]c4ccccc34)c2=O)cc1 | inactive | inactive | inactive | inactive | inactive | inactive | inactive | inactive |  |  |  |  |  |  |  |  |  |

Reference: ChEMBL document CHEMBL3045946, “Synthesis and biological activity studies of new hybrid molecules containing tryptamine moiety” (2012)
